Measured values from ChEMBL document CHEMBL1944615, “Synthesis and biological evaluation of deoxy-hematoxylin derivatives as a novel class of anti-HIV-1 agents” (Bioorg Med Chem Lett, 2012).

How the values were obtained:
[1] = test system: Human immunodeficiency virus 1; assay: Antiviral activity against HIV1 NF-462 expressing wild-type Vpr infected in human 293T cells containing 4 ng of viral p24 antigen after 8 days by ELISA; type: functional, organism-based
[2] = test system: Human immunodeficiency virus 1; assay: Antiviral activity against HIV1 NL432 infected in human TZM-Bl cells assessed as inhibition of viral replication after 2 days by luciferase reporter gene analysis; type: functional, organism-based
[3] = Inhibition of HIV1 VPR/human importin-alpha interaction in human HeLa cells assessed as inhibition of nuclear import of preintegral complex after 15 mins by confocal laser scanning microscopic analysis; type: cell-based
[4] = test system: Human immunodeficiency virus 1; assay: Antiviral activity against HIV1 NL432 infected in human ConA and IL2-stimulated PBMC assessed as inhibition of viral replication by reverse transcriptase assay; type: functional, organism-based
[5] = Cytotoxicity against human MOLT4 cells expressing CD4+ after 2 days by MTT assay; type: cell-based, MOLT-4
[6] = test system: Human immunodeficiency virus 1; assay: Antiviral activity against HIV1 NF-462 expressing wild-type Vpr infected in human 293T cells containing 4 ng of viral p24 antigen after 8 days by ELISA relative to hematoxylin; type: functional
[7] = test system: Human immunodeficiency virus 1; assay: Antiviral activity against HIV1 NF-462 expressing wild-type Vpr infected in human 293T cells containing 1 ng of viral p24 antigen after 8 days by ELISA relative to hematoxylin; type: functional
[8] = Human immunodeficiency virus 1, NF-462, HEK-293T, 192 h, read-out: IC50
[9] = Human immunodeficiency virus 1, NL432, TZM-bl, 48 h, read-out: IC50
[10] = Human immunodeficiency virus 1, NL432, read-out: IC50

IC50 [1, 8] [µM] | IC50 [3] [µM] | IC50 [2, 9] [µM] | IC50 [4, 10] [µM] | IC50 ([1]; 293t) | Structure (SMILES) | IC50 ([2]; tzm-bl) | IC50 [4] | CC50 at 48 h [5] [µM] | Ratio IC50 [6] | Ratio IC50 [7]
0.4 | 0.9 |  |  |  | Oc1cc2c(cc1O)[C@@H]1c3cccc(O)c3OC[C@]1(O)C2 | ND(toxic) | ND(toxic) | 32 |  | 
 | 1.9 |  |  |  | Oc1cc2c(cc1O)[C@@H]1c3ccccc3OC[C@]1(O)C2 | ND(toxic) |  | 1.9 |  | 
0.9 | 0.6 | 67.6 | 25.1 |  | Oc1ccc2c(c1)C[C@@]1(O)COc3ccccc3[C@@H]21 |  |  | 82 |  | 
 | 2.7 |  |  |  | O[C@]12COc3ccccc3[C@H]1c1ccccc1C2 | Not Active |  | > 100 |  | 
 | 0.8 |  |  | Not Active | CC1(C)Oc2cc3c(cc2O1)[C@@H]1c2cccc(OCc4ccccc4)c2OC[C@]1(O)C3 | Not Active |  | > 80 |  | 
0.1 | 0.5 | 24.6 | 30.1 |  | CC1(C)Oc2cc3c(cc2O1)[C@@H]1c2cccc(O)c2OC[C@]1(O)C3 |  |  | > 80 | 10 | 2

Structure (SMILES) | IC50 [1, 8] [µM] | IC50 [3] [µM] | IC50 [2, 9] [µM] | IC50 [4, 10] [µM] | IC50 ([1]; 293t) | IC50 ([2]; tzm-bl) | IC50 [4] | CC50 at 48 h [5] [µM] | Ratio IC50 [6] | Ratio IC50 [7]
Oc1cc2c(cc1O)[C@@H]1c3ccc(O)c(O)c3OC[C@]1(O)C2 [HEMATOXYLIN] | < 1 | 1.3 | 100 |  |  |  | ND(toxic) | 40 |  | 
